One series deals with A/WSN/33(H1N1) virus. Nature of the series: microbe, parasite or virus in culture. In kind it is cell-based, influenza A virus. Particulars: for inhibition at 100 µM: read-out: %-inhibition in viral yield reduction assay screening; for EC50: read-out: EC50 viral yield assay.
A short description of the next series: in vitro. The following applies: dog.
For a further series, the system named is A/HK/1/68(H3N2). Nature of the series: microbe, parasite or virus in culture. Particulars: Influenza A virus, H3N2, read-out: EC50 viral yield reduction assay. In kind it is cell-based.
In series [1] the test system is A/California/7/09(H1N1pdm). Nature of the series: microbe, parasite or virus in culture. In kind it is cell-based. Particulars: Influenza A virus, read-out: EC50 viral yield reduction assay.
The subject of the next series is B/Florida/04/2006. Nature of the series: microbe, parasite or virus in culture. In kind it is cell-based. Particulars: Influenza B virus, read-out: EC50 viral yield reduction assay.
For series [2], the system named is H5 PA-PB1 heterodimeric complex. In kind it is biochemical, influenza A virus.
In a further series the target is H1 polymerase (Influenza A virus, UniProt P15659). Nature of the series: cell-based. The following applies: EC50 minigenome luciferase reporter assay. On the set-up: species or system A/WSN/33(H1N1).
The mark [3] stands for this setting: Influenza A virus, H1N1|WSN, MDCK.

“And” between values parts separate entries of the source, which are not always exact repeats. Equal entries are not always repeated. Where two headings read alike, the source gives them in different places.

A word on the inhibition: it is the change of the read-out against control, counted positive when it falls. Regarding `Cc1ccccc1NCC(=O)Nc1ccccc1C(=O)NCc1cccc2cn[nH]c12` [Compound 1, N-[(1H-Indazol-7-yl)methyl]-2-[2-(o-tolylamino)acetamido]benzamide], the inhibition at 100 µM in the series on A/WSN/33(H1N1) virus (setting [3]) came out at 25%. In “in vitro”, the CC50 was more than 100 µM.
The matching figures for `Cc1ccc(NCC(=O)Nc2ccccc2C(=O)NCc2cccc3cn[nH]c23)cc1` [Compound 2, N-[(1H-Indazol-7-yl)methyl]-2-[2-(p-tolylamino)acetamido]benzamide]: 10.2% and more than 100 µM.
Turning to `Cc1cccc(NCC(=O)Nc2ccccc2C(=O)NCc2cccc3cn[nH]c23)c1` [Compound 3, N-[(1H-Indazol-7-yl)methyl]-2-[2-(m-tolylamino)acetamido]benzamide], the inhibition at 100 µM in the series on A/WSN/33(H1N1) virus (setting [3]) was 18.6%. This compound had a CC50 in the series “in vitro” of more than 100 µM.
`O=C(CNC1CCCCC1)Nc1ccccc1C(=O)NCc1cccc2cn[nH]c12` [Compound 4, N-[(1H-Indazol-7-yl)methyl]-2-[2-(cyclohexylamino)acetamido]benzamide]: the inhibition at 100 µM with A/WSN/33(H1N1) virus (setting [3]) was less than 2%. In addition, the CC50 in “in vitro” was more than 100 µM.
Consider `O=C(CN1CCSCC1)Nc1ccccc1C(=O)NCc1cccc2cn[nH]c12` [Compound 5, N-[(1H-Indazol-7-yl)methyl]-2-[2-(thiomorpholin-4-yl)acetamido]benzamide], for which the inhibition at 100 µM in the series with A/WSN/33(H1N1) virus (setting [3]) is less than 2%. Also, the CC50 in “in vitro” is more than 100 µM.
Take `O=C(CNc1ccc(Cl)cc1)Nc1ccccc1C(=O)NCc1cccc2cn[nH]c12` [Compound 6, N-[(1H-Indazol-7-yl)methyl]-2-{2-[(4-chlorophenyl)amino]acetamido}benzamide]: in the series on A/WSN/33(H1N1) virus (setting [3]), the inhibition at 100 µM is less than 2%. In the series “in vitro”, this compound yielded a CC50 of more than 100 µM.
Turning to `O=C(CNCc1ccccc1)Nc1ccccc1C(=O)NCc1cccc2cn[nH]c12` [Compound 7, N-[(1H-Indazol-7-yl)methyl]-2-[2-(benzylamino)acetamido]benzamide], the inhibition at 100 µM in the series on A/WSN/33(H1N1) virus (setting [3]) is less than 2%. In “in vitro”, this compound displayed a CC50 of more than 50 µM.
Consider `O=C(CN1CCOCC1)Nc1ccccc1C(=O)NCc1cccc2cn[nH]c12` [Compound 8, N-[(1H-Indazol-7-yl)methyl]-2-(2-morpholinoacetamido)benzamide], for which the inhibition at 100 µM with A/WSN/33(H1N1) virus (setting [3]) is less than 2%. This compound registered a CC50 in the series “in vitro” of more than 100 µM.
The like results for `O=C(/C=C/c1ccc(Br)cc1)NCc1cccc2cn[nH]c12` [Compound 9, (E)-N-[(1H-Indazol-7-yl)methyl]-3-(4-bromophenyl)acrylamide] were, in that order, less than 2% and more than 100 µM.
With `O=C(/C=C/c1ccc(Cl)cc1)NCc1cccc2cn[nH]c12` [Compound 10, (E)-N-[(1H-Indazol-7-yl)methyl]-3-(4-chlorophenyl)acrylamide], in the series on A/WSN/33(H1N1) virus (setting [3]), the inhibition at 100 µM was less than 2%. For the same compound, the CC50 in the series “in vitro” is more than 100 µM.
The matching figures for `O=C(/C=C/c1ccc(C(F)(F)F)cc1)NCc1cccc2cn[nH]c12` [Compound 11, (E)-N-[(1H-Indazol-7-yl)methyl]-3-[4-(trifluoromethyl)phenyl]acrylamide]: less than 2% and more than 100 µM.
The matching figures for `O=C(/C=C/c1ccc([N+](=O)[O-])cc1)NCc1cccc2cn[nH]c12` [Compound 12, (E)-N-[(1H-Indazol-7-yl)methyl]-3-(4-nitrophenyl)acrylamide]: 37.3% and more than 100 µM.
With `O=C(/C=C/c1ccc(F)cc1)NCc1cccc2cn[nH]c12` [Compound 13, (E)-N-[(1H-Indazol-7-yl)methyl]-3-(4-fluorophenyl)acrylamide], the inhibition at 100 µM in the series with A/WSN/33(H1N1) virus (setting [3]) was 30.5%. This compound also showed a CC50 in “in vitro” of more than 100 µM.
In the case of `COc1ccc(/C=C/C(=O)NCc2cccc3cn[nH]c23)cc1` [Compound 14, (E)-N-[(1H-Indazol-7-yl)methyl]-3-(4-methoxyphenyl)acrylamide], the inhibition at 100 µM in the series on A/WSN/33(H1N1) virus (setting [3]) was 48.4%. For the same compound, the CC50 in the series “in vitro” is more than 100 µM.
As for `O=C(/C=C/c1ccc(F)c(F)c1)NCc1cccc2cn[nH]c12` [Compound 15, (E)-N-[(1H-Indazol-7-yl)methyl]-3-(3,4-difluorophenyl)acrylamide], the inhibition at 100 µM in the series on A/WSN/33(H1N1) virus (setting [3]) stood at 44.1%. In “in vitro”, the CC50 is more than 100 µM.
For the compound `O=C(/C=C/c1ccncc1)NCc1cccc2cn[nH]c12` [Compound 16, (E)-N-[(1H-Indazol-7-yl)methyl]-3-(pyridin-4-yl)acrylamide], the inhibition at 100 µM with A/WSN/33(H1N1) virus (setting [3]) came out at 48.2%. In addition, the CC50 in the series “in vitro” was more than 100 µM.
For the compound `O=C(/C=C/c1ccco1)NCc1cccc2cn[nH]c12` [Compound 17, (E)-N-[(1H-Indazol-7-yl)methyl]-3-(furan-2-yl)acrylamide], the inhibition at 100 µM with A/WSN/33(H1N1) virus (setting [3]) was determined as 33.9%. The compound also yielded a CC50 in “in vitro” of more than 100 µM.
For `O=C(/C=C/c1cccs1)NCc1cccc2cn[nH]c12` [Compound 18, (E)-N-[(1H-Indazol-7-yl)methyl]-3-(thiophen-2-yl)acrylamide], in the series on A/WSN/33(H1N1) virus (setting [3]), the inhibition at 100 µM was less than 2%. The CC50 in the series “in vitro” is more than 100 µM.
With `S=C(NCc1cccc2cn[nH]c12)Nc1ccccc1` [Compound 19, 1-[(1H-Indazol-7-yl)methyl]-3-phenylthiourea], the inhibition at 100 µM in the series on A/WSN/33(H1N1) virus (setting [3]) came to 25%. In the series “in vitro”, this compound gave a CC50 of more than 100 µM.
As for `Cc1ccc(NC(=S)NCc2cccc3cn[nH]c23)cc1` [Compound 20, 1-[(1H-Indazol-7-yl)methyl]-3-(p-tolyl)thiourea], the inhibition at 100 µM in the series with A/WSN/33(H1N1) virus (setting [3]) is less than 2%. The compound further displayed a CC50 in “in vitro” of more than 100 µM.
On to `S=C(NCc1cccc2cn[nH]c12)Nc1cccc(Cl)c1` [Compound 21, 1-[(1H-Indazol-7-yl)methyl]-3-(3-chlorophenyl)thiourea], for which the inhibition at 100 µM with A/WSN/33(H1N1) virus (setting [3]) stood at 37.5%. In addition, the CC50 in “in vitro” was more than 25 µM.
In the case of `S=C(NCc1cccc2cn[nH]c12)Nc1ccc(Cl)cc1` [Compound 22, 1-[(1H-Indazol-7-yl)methyl]-3-(4-chlorophenyl)thiourea], the inhibition at 100 µM with A/WSN/33(H1N1) virus (setting [3]) is 16.9%. Also, the CC50 in the series “in vitro” was more than 100 µM.
For the compound `S=C(NCc1cccc2cn[nH]c12)Nc1cccc(Cl)c1Cl` [Compound 23, 1-[(1H-Indazol-7-yl)methyl]-3-(2,3-dichlorophenyl)thiourea], the inhibition at 100 µM with A/WSN/33(H1N1) virus (setting [3]) is less than 2%. For the same compound, in the series “in vitro”, the CC50 is more than 100 µM.
Usually EC50 stands for the midpoint of the concentration-response curve. As for `COc1ccc(NC(=S)NCc2cccc3cn[nH]c23)cc1OC` [Compound 24, 1-[(1H-Indazol-7-yl)methyl]-3-(3,4-dimethoxyphenyl)thiourea], in the series on A/WSN/33(H1N1) virus, the “%-inhibition in viral yield reduction assay screening” value came to 99.9%. In addition, the inhibition at 100 µM with A/WSN/33(H1N1) virus (setting [3]) is more than 90%. In addition, the EC50 in the series with A/HK/1/68(H3N2) worked out at 0.54 µM; in series [1] it was 0.746 µM; with B/Florida/04/2006, 0.23 µM. Also, in series [2], the “PA-PB1 complex co-immunoprecipitated compared to DMSO control” value was 64.5% ± 6.2% and 64.5%. This compound gave a CC50 in the series “in vitro” of more than 100 µM.
With `S=C(NCc1cccc2cn[nH]c12)Nc1ccc(I)cc1` [Compound 25, 1-[(1H-Indazol-7-yl)methyl]-3-(4-iodophenyl)thiourea], the inhibition at 100 µM with A/WSN/33(H1N1) virus (setting [3]) was found to be 74.4%. In “in vitro”, this compound yielded a CC50 of more than 100 µM.
For the compound `FC(F)(F)Oc1ccc(NC(=S)NCc2cccc3cn[nH]c23)cc1` [Compound 26, 1-[(1H-Indazol-7-yl)methyl]-3-[4-(trifluoromethoxy)phenyl]thiourea], the inhibition at 100 µM in the series on A/WSN/33(H1N1) virus (setting [3]) was less than 2%. Also, in the series “in vitro”, the CC50 is more than 100 µM.
For `FC(F)(F)c1ccc(NC(=S)NCc2cccc3cn[nH]c23)cc1` [Compound 27, 1-[(1H-Indazol-7-yl)methyl]-3-[4-(trifluoromethyl)phenyl]thiourea], in the series on A/WSN/33(H1N1) virus, the “%-inhibition in viral yield reduction assay screening” value turned out to be 94.9%, the “selectivity index (CC50/EC50)” value is more than 12.5 and the EC50 was 8.03 µM. Also, in the series on A/WSN/33(H1N1) virus (setting [3]), the inhibition at 100 µM is more than 90% and the EC50 was determined as 8.03 µM. This compound displayed a CC50 in “in vitro” of more than 100 µM.
`S=C(NCc1ccccc1)NCc1cccc2cn[nH]c12` [Compound 28, 1-[(1H-Indazol-7-yl)methyl]-3-benzylthiourea]: the inhibition at 100 µM in the series on A/WSN/33(H1N1) virus (setting [3]) is less than 2%. This compound had a CC50 in “in vitro” of more than 100 µM.
The matching figures for `Fc1ccc(NC(=S)NCc2cccc3cn[nH]c23)cc1` [Compound 29, 1-[(1H-Indazol-7-yl)methyl]-3-(4-fluorophenyl)thiourea]: less than 2% and more than 100 µM.
Turning to `S=C(NCc1cccc2cn[nH]c12)Nc1ccc(Br)cc1` [Compound 30, 1-[(1H-Indazol-7-yl)methyl]-3-(4-bromophenyl)thiourea], the inhibition at 100 µM with A/WSN/33(H1N1) virus (setting [3]) was less than 2%. This compound had a CC50 in the series “in vitro” of more than 100 µM.
Turning to `N#Cc1ccc(NC(=S)NCc2cccc3cn[nH]c23)cc1` [Compound 31, 1-[(1H-indazol-7-yl)methyl]-3-(4-cyanophenyl)thiourea], in the series with A/WSN/33(H1N1) virus, the “%-inhibition in viral yield reduction assay screening” value was 99.9%, the “selectivity index (CC50/EC50)” value is on record as more than 1.73 and the EC50 was determined as 14.6 µM. In the series with A/WSN/33(H1N1) virus (setting [3]), the inhibition at 100 µM was more than 90% and the EC50 turned out to be 14.6 µM. In the series “in vitro”, this compound returned a CC50 of more than 25 µM.
For `COC(=O)OCOc1c2n(ccc1=O)N([C@@H]1c3ccccc3SCc3c1ccc(F)c3F)[C@@H]1COCCN1C2=O` [baloxavir marboxil, reference compound], in the series on A/WSN/33(H1N1) virus, the half-maximal effective concentration (EC50) was 0.00095 µM.
For the compound `NC(=O)c1nc(F)c[nH]c1=O` [favipiravir, reference compound], the half-maximal effective concentration (EC50) with A/WSN/33(H1N1) virus is 1.57 µM; on H1 polymerase, 0.441 µM.
